Assay results published in patent publication US20230083012A1, “DIHYDROPYRIMIDINE DERIVATIVES AND USES THEREOF IN THE TREATMENT OF HBV INFECTION OR OF HBV-INDUCED DISEASES” (priority 2019, published 2023).

Legend:
[1] = Cytotoxicity determination in HepG2.2.15 cells (CCK-8 cell viability); type: cell-based; details: human, 6 days treatment, CCK-8 assay, highest concentration 100 uM
In short: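 HepG2.2.15 cells seeded at 5,000 cells/well in 2% FBS medium, exposed 6 days to compounds (8-point 1:3 dilutions from 100 uM, triplicate), refreshed at day 3. Viability read by CCK-8 after 2.5 h at 37° C, absorbance 450 nm with 630 nm reference; CC50 calculated.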

[2] = system: HBV; test: Anti-HBV activity in HepG2.2.15 cells (HBV DNA in culture medium by qPCR); type: cell-based; details: Hepatitis B virus, HepG2.2.15, 144 h, HepG2.2.15 cells, 6 days treatment, HBV DNA in culture medium quantified by real-time PCR; read-out: EC50
In short: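 HepG2.2.15 cells in 2% FBS medium at 37 °C were treated with compounds for 6 days, with medium and compound refreshed at day 3; 1:3 dilutions, 8 concentrations in triplicate, top 10 or 1 uM. HBV DNA in culture medium quantified by qPCR to derive EC50; CC50 from parallel plates (top 100 uM).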

SMILES	CC50 at 6 days [1] [µM]	EC50 [2] [nM]
COC(=O)C1=C(CN2CC(F)(F)[C@H]3[C@@H]2CCN3C[C@@H](C)C(=O)O)NC(c2nccs2)=N[C@H]1c1cccc(F)c1Cl (single isomer, unassigned) [Compound 132A, 3-((cis)-4-((6-(2-Chloro-3-fluorophenyl)-5-(methoxycarbonyl)-2-(thiazol-2-yl)-3,6-dihydropyrimidin-4-yl)methyl)-6,6-difluorohexahydropyrrolo[3,2-b]pyrrol-1(2H)-yl)-2-methylpropanoic acid]	40.7	< 0.5
CCOC(=O)C1=C(CN2CC(F)(F)[C@@H]3C(=O)N(CC4(C(=O)O)CCCC4)C[C@@H]32)NC(c2nccs2)=N[C@H]1c1cccc(F)c1C (single isomer, unassigned) [Compound 199]	35.9	11.8
COC(=O)C1=C(CN2CC(F)(F)[C@H]3[C@@H]2CCN3C[C@H](C)C(=O)O)NC(c2nccs2)=N[C@H]1c1cccc(F)c1Cl (single isomer, unassigned) [Compound 132B, 3-((cis)-4-((6-(2-Chloro-3-fluorophenyl)-5-(methoxycarbonyl)-2-(thiazol-2-yl)-3,6-dihydropyrimidin-4-yl)methyl)-6,6-difluorohexahydropyrrolo[3,2-b]pyrrol-1(2H)-yl)-2-methylpropanoic acid]	71.8	10.7
CCOC(=O)C1=C(CN2CC(F)(F)[C@@H]3CN([C@H]4CC[C@H](C(=O)O)CC4)C(=O)[C@@H]32)NC(c2nccs2)=N[C@H]1c1cccc(F)c1C (single isomer, unassigned) [Compound 185B]	27.6	8.3
COC(=O)C1=C(CN2CC(F)(F)[C@@H]3[C@H]2CON3CCC(C)(C)C(=O)O)NC(c2nccs2)=N[C@H]1c1ccc(F)c(F)c1Cl (single isomer, unassigned) [Compound 162, (cis)-4-(4-((6-(2-chloro-3,4-difluorophenyl)-5-(methoxycarbonyl)-2-(thiazol-2-yl)-3,6-dihydropyrimidin-4-yl)methyl)-6,6-difluorohexahydro-1H-pyrrolo[3,2-c]isoxazol-1-yl)-2,2-dimethylbutanoic acid]	50	5
CCOC(=O)C1=C(CN2CC(F)(F)[C@@H]3[C@H]2CCN3CC(=O)O)NC(c2nccs2)=N[C@H]1c1cccc(F)c1C (single isomer, unassigned) [Compound 6A]	30.4	3.6
CCOC(=O)C1=C(CN2CC(F)(F)[C@H]3CN(CC(C)C(=O)O)C[C@H]32)NC(c2nccs2)=N[C@H]1c1cccc(F)c1C (single isomer, unassigned) [Compound 15B]	> 100	27.2
CCOC(=O)C1=C(CN2CC(F)(F)[C@H]3[C@@H]2CCN3CC(C)(C)C(=O)O)NC(c2nccs2)=N[C@@H]1c1cccc(O)c1C (single isomer, unassigned) [Compound 106, (cis)-3-(4-((5-(ethoxycarbonyl)-6-(3-hydroxy-2-methylphenyl)-2-(thiazol-2-yl)-3,6-dihydropyrimidin-4-yl)methyl)-6,6-difluorohexahydropyrrolo[3,2-b]pyrrol-1(2H)-yl)-2,2-dimethylpropanoic acid]	39.5	20
CCOC(=O)C1=C(CN2CC(F)(F)[C@H]3[C@@H]2CCN3CC2(CC(=O)O)CC2)NC(c2nccs2)=N[C@H]1c1cccc(F)c1C (relative stereo) [Compound 49, 2-(1-((4-(((S)-5-(ethoxycarbonyl)-6-(3-fluoro-2-methylphenyl)-2-(thiazol-2-yl)-3,6-dihydropyrimidin-4-yl)methyl)-6,6-difluorohexahydropyrrolo[3,2-b]pyrrol-1(2H)-yl)methyl)cyclopropyl)-acetic acid]	25.5	32.6
COC(=O)C1=C(CN2CC(F)(F)[C@@H]3[C@H]2CN(C(C)=O)N3CCC(C)(C)C(=O)O)NC(c2nccs2)=N[C@H]1c1ccc(F)c(F)c1Cl (single isomer, unassigned) [Compound 79A, 4-((cis)-2-acetyl-4-((6-(2-chloro-3,4-difluorophenyl)-5-(methoxycarbonyl)-2-(thiazol-2-yl)-3,6-dihydropyrimidin-4-yl)methyl)-6,6-difluorohexahydropyrrolo[3,2-c]pyrazol-1(2H)-yl)-2,2-dimethylbutanoic acid]	> 50	40
CCOC(=O)C1=C(CN2CC(F)(F)[C@@H]3[C@H]2CN(C(=O)C2(F)CC2)N3CCC(C)(C)C(=O)O)NC(c2nccs2)=N[C@H]1c1cccc(F)c1C (single isomer, unassigned) [Compound 85]	22.6	69
CCOC(=O)C1=C(CN2CC(F)(F)[C@H]3[C@@H]2CN(CC(C)(C)C(=O)O)N3C)NC(c2nccs2)=N[C@H]1c1cccc(F)c1C (relative stereo) [Compound 87, 3-((cis)-4-(((S)-5-(ethoxycarbonyl)-6-(3-fluoro-2-methylphenyl)-2-(thiazol-2-yl)-3,6-dihydropyrimidin-4-yl)methyl)-6,6-difluoro-1-methylhexahydropyrrolo[3,2-c]pyrazol-2(1H)-yl)-2,2-dimethylpropanoic acid]	> 50	14
CCOC(=O)C1=C(CN2CC(F)(F)[C@@H]3[C@H]2CN(C)N3CCOC(C)(C)C(=O)O)NC(c2nccs2)=N[C@H]1c1cccc(F)c1C (single isomer, unassigned) [Compound 99]	25	155
CCOC(=O)C1=C(CN2CC(F)(F)[C@@H]3CN(S(=O)(=O)[C@H]4C[C@@](C)(C(=O)O)C4)C[C@@H]32)NC(c2nccs2)=N[C@H]1c1cccc(F)c1C (single isomer, unassigned) [Compound 205B]	> 50	103
COC(=O)C1=C(CN2CC(F)(F)[C@@H]3[C@H]2CN(C)N3CCC(C)(C)C(=O)O)NC(c2nccs2)=N[C@H]1c1ccc(F)cc1Cl (single isomer, unassigned) [Compound 94]	25	14
CCOC(=O)C1=C(CN2CC(F)(F)[C@@H]3[C@H]2CON3C[C@@H](CC)C(=O)O)NC(c2nccs2)=N[C@H]1c1cccc(F)c1C (single isomer, unassigned) [Compound 178A]	> 50	3.5
CCOC(=O)C1=C(CN2CCC3C(=O)N(CC(C)(C)C(=O)O)C(=O)C32)NC(c2nccs2)=N[C@H]1c1cccc(F)c1C (stereo partly shown) [Compound 4]	47.8	56.4
CCOC(=O)C1=C(CN2CC(F)(F)[C@H]3[C@@H]2CCN3C[C@H]2C[C@@H](C(=O)O)C2)NC(c2nccs2)=N[C@H]1c1cccc(F)c1C (single isomer, unassigned) [Compound 143B]	22.8	4.6
CCOC(=O)C1=C(CN2C[C@H](F)[C@H]3[C@@H]2CCN3CC(C)(C)C(=O)O)NC(c2nccs2)=N[C@H]1c1cccc(F)c1C (single isomer, unassigned) [Compound 11B]	30	31.4
COC(=O)C1=C(CN2CC(F)(F)[C@@H]3CN(CC(C)(C)C(=O)O)C[C@@H]32)NC(c2nccs2)=N[C@H]1c1ccc(F)cc1Cl (single isomer, unassigned) [Compound 20B, 3-((cis)-1-((6-(2-chloro-4-fluorophenyl)-5-(methoxycarbonyl)-2-(thiazol-2-yl)-3,6-dihydropyrimidin-4-yl)methyl)-3,3-difluorohexahydropyrrolo[3,4-b]pyrrol-5(1H)-yl)-2,2-dimethylpropanoic acid]	> 100	39.5
CCOC(=O)C1=C(CN2CC(F)(F)[C@@H]3C(=O)N(CC(C)(C)C(=O)O)C[C@@H]32)NC(c2nccs2)=N[C@H]1c1cccc(F)c1Cl (single isomer, unassigned) [Compound 43, 3-((cis)-1-((6-(2-chloro-3-fluorophenyl)-5-(ethoxycarbonyl)-2-(thiazol-2-yl)-3,6-dihydropyrimidin-4-yl)methyl)-3,3-difluoro-4-oxohexahydropyrrolo[3,4-b]pyrrol-5(1H)-yl)-2,2-dimethylpropanoic acid]	50.2	4.1
CCOC(=O)C1=C(CN2CC(F)(F)[C@H]3[C@@H]2CCN3c2ncc(C(=O)O)cn2)NC(c2nccs2)=N[C@H]1c1cccc(F)c1C (single isomer, unassigned) [Compound 150]	15	57
CCOC(=O)C1=C(CN2CC(F)(F)[C@H]3[C@@H]2CN(C(C)=O)N3CCC(C)(C)C(=O)O)NC(c2nccs2)=N[C@H]1c1ccc(F)c(F)c1F (single isomer, unassigned) [Compound 83B, 4-((cis)-2-acetyl-4-((5-(ethoxycarbonyl)-2-(thiazol-2-yl)-6-(2,3,4-trifluorophenyl)-3,6-dihydropyrimidin-4-yl)methyl)-6,6-difluorohexahydropyrrolo[3,2-c]pyrazol-1(2H)-yl)-2,2-dimethylbutanoic acid]	39	35
CCOC(=O)C1=C(CN2CC(F)(F)[C@@H]3CN(C(=O)[C@H]4C[C@@H](C(=O)O)C4)C[C@@H]32)NC(c2nccs2)=N[C@H]1c1cccc(F)c1C (single isomer, unassigned) [Compound 56B]	> 100	79.2
[2H]C([2H])(CC(C)(C)C(=O)O)N1CC[C@H]2[C@@H]1C(F)(F)CN2CC1=C(C(=O)OCC)[C@H](c2cccc(F)c2C)N=C(c2nccs2)N1 (single isomer, unassigned) [Compound 137]	21.8	1
CCOC(=O)C1=C(CN2CC(F)(F)[C@@H]3CN(S(N)(=O)=O)C[C@@H]32)NC(c2nccs2)=N[C@H]1c1cccc(F)c1C (single isomer, unassigned) [Compound 33]	14.6	2.4
